In assay [1] the target is Melanin-concentrating hormone receptor 1 (Homo sapiens, UniProt Q99705). Briefly: Late-stage fluorescence-based counterscreen for antagonists of the G-protein coupled receptor 7 (GPR7): cell-based dose response assay to identify antagonists of the melanin-concentrating hormone receptor 1 (MCHR1). [Related pubchem assays (depositor defined):AID1861, AID1880, AID1952, AID2148, AID2251, AID2257, AID485339]. In kind it is functional. Background: Counterscreens check selectivity or assay interference.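 Also: stimulated with 30 nM MCH peptide agonist.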

Assay [2] has as its target Neuropeptides B/W receptor type 1 (Homo sapiens, UniProt P48145). Kind of assay: human NPBW1 receptor blockade, IC50 – cell-based, fluorescence, dose response, late-stage follow-up (AID 463251). The assay is classed as functional.
A short description of assay [3]: NIH/3T3 cell viability loss – mouse embryonic fibroblasts, dry powder, set 2, cytotoxicity control, dose response (AID 493247). The assay is classed as functional, cell-based. The following applies: Fibroblast.
In the next assay the test system is Trypanosoma cruzi. Kind of assay: anti-trypanosomal activity in host cells – cell-based, plate reader, dry powder, set 3, dose response (AID 493197). In kind it is functional.
The target of assay [4] is Voltage-dependent T-type calcium channel subunit alpha-1H (Homo sapiens, UniProt O95180). Briefly: human CACNA1H calcium influx blockade – cell-based, synthetic library set 1, calcium flux (AID 493022). The assay is classed as functional. Background: Calcium assays in cells follow changes in intracellular calcium, usually with a dye or a luminescent sensor.
Assay [5] concerns the target Sphingosine 1-phosphate receptor 4 (Homo sapiens, UniProt O95977). Briefly: potency of S1P4 activators – cell-based, fluorescence, synthesized compounds, late-stage follow-up (AID 463107). The assay is classed as functional.
Assay [6] has as its target T1, Intestinal-type alkaline phosphatase (Mus musculus, UniProt P24822). Briefly: PubChem AID 488875. In kind it is functional.
In assay [7] the target is T2, Alkaline phosphatase, tissue-nonspecific isozyme (Homo sapiens, UniProt P05186).
T2 sequence (P05186 whole entry): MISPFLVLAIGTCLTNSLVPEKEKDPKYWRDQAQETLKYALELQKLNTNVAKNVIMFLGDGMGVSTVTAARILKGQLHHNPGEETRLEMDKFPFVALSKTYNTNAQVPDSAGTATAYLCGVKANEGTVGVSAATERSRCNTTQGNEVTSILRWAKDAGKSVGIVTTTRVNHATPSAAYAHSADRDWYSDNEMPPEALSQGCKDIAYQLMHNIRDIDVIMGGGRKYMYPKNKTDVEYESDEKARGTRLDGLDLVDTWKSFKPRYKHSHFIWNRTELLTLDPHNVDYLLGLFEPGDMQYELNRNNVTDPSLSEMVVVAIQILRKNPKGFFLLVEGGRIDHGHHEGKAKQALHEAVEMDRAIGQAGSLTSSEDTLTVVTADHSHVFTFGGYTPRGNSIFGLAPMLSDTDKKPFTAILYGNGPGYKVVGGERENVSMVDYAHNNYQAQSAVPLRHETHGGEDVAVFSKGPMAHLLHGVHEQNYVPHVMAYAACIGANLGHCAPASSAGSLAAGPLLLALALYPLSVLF
Briefly: activation of tissue-nonspecific alkaline phosphatase – biochemical, TNAP isozyme, human IAP uHTS hits, selectivity assay for human IAP activator project, dose response (AID 488886).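 Also: potency of compounds raising TNAP activity as a selectivity check on IAP activators.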 The assay is classed as functional.

For assay [8], the target named is T3, Intestinal-type alkaline phosphatase (Homo sapiens, UniProt P09923). Briefly: human intestinal alkaline phosphatase activators, dose response, biochemical, luminescence, uHTS hits (AID 463120). The assay is classed as functional.
T3 sequence (P09923 whole entry): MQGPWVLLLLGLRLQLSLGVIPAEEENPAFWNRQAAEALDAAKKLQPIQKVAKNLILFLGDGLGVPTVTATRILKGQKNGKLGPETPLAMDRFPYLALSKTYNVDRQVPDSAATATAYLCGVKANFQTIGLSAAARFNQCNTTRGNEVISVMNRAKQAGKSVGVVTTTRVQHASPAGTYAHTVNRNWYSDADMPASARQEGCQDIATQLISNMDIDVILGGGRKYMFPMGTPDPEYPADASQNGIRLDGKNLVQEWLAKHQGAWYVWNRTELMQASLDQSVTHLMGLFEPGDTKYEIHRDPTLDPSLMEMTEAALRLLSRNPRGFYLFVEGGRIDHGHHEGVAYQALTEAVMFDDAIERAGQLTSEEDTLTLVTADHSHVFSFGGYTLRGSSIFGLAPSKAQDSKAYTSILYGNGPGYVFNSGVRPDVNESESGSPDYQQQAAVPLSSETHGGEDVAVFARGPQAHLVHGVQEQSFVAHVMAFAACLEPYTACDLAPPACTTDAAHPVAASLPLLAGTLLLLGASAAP
Assay [9] deals with T3, Intestinal-type alkaline phosphatase. Briefly: activation of human intestinal alkaline phosphatase – biochemical, luminescent, uHTS hits, set 2, dose response (AID 488817).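 Also: potency of activators that raise enzyme activity.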 The assay is classed as functional.
In assay [10] the target is T4, Eukaryotic translation initiation factor 4H (Homo sapiens, UniProt Q15056). Briefly: inhibitors of translation initiation factor eIF4H – SAR follow-up (AID 435011). The assay is classed as functional.
Assay [11] concerns the target T5, Polyadenylate-binding protein 1 (Homo sapiens, UniProt P11940). Briefly: blockers of PABP interaction with poly(A) – biochemical, fluorescence polarization, […] (AID 2014).
The target in assay [12] is T5, Polyadenylate-binding protein 1. Kind of assay: PABP inhibition in translation initiation, SAR follow-up (AID 435018). In kind it is functional.
Assay [13] concerns the target T4, Eukaryotic translation initiation factor 4H. Briefly: eIF4H binding inhibition – biochemical, uHTS, fluorescence polarization, translation initiation inhibitor project, primary screen (AID 2012).
The next assay has as its target Integrin alpha-4 (Homo sapiens, UniProt P13612). Briefly: allosteric modulators of alpha4 integrin VLA-4 – cell-based, LIBS antibody binding, flow cytometry, SAR follow-up (AID 488791). The assay is classed as functional. (Flow cytometry measures light scatter and fluorescence of single cells or particles in a stream.)
The next assay relates to J774.A1. Kind of assay: Confirmation of image-based Screening Assay for Inhibitors of Phagocytosis. [Related pubchem assays (depositor defined):AID1029, AID1643]. The note with it: Mus musculus. The assay is classed as functional, cell-based.
Assay [14] deals with T6, Microphthalmia-associated transcription factor (Homo sapiens, UniProt O75030).
T6 sequence (O75030 whole entry): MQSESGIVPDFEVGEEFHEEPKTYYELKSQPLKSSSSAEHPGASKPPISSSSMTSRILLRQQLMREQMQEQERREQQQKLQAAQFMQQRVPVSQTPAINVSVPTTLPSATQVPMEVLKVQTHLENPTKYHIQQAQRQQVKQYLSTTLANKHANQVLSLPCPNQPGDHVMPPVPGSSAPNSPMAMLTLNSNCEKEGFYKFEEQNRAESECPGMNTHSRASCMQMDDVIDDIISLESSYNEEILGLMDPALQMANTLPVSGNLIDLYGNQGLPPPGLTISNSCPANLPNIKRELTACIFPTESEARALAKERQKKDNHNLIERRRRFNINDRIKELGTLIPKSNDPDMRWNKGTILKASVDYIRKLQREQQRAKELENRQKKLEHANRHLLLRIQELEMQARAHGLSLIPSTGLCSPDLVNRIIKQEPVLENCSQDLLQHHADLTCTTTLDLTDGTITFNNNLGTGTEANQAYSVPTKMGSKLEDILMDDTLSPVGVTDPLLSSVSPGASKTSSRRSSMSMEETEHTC
Briefly: MITF Measured in Cell-Based System Using Plate Reader - 2084-01_Inhibitor_DoseNoFile_CherryPick_Activity_Set2. [Related pubchem assays (depositor defined):AID488944]. The assay is classed as functional.

Assay [15] deals with T6, Microphthalmia-associated transcription factor. Briefly: reducers of TRPM1 reporter luminescence, concentration series – cell-based, SK-MEL-5, cherry-picked, set 3, MITF inhibitor project, dose response (AID 493073).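 Also: SK-MEL-5 melanoma cells with luciferase driven by the MITF target TRPM1 promoter.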 The assay is classed as functional.
For assay [16] the target is unchanged. Briefly: reducers of TRPM1 reporter luminescence, concentration series – cell-based, SK-MEL-5, cherry-picked, set 4, MITF inhibitor project, dose response (AID 493102). In kind it is functional.
In assay [17] the target is T1, Intestinal-type alkaline phosphatase. Kind of assay: PubChem AID 488874. The assay is classed as functional.
Assay [18] addresses NACHT, LRR and PYD domains-containing protein 3 (Homo sapiens, UniProt Q96P20). Briefly: NALP3 inhibitors in yeast, dose response, luminescent (AID 488799). The assay is classed as functional.
Assay [19] addresses T7, Kappa-type opioid receptor (Homo sapiens, UniProt P41145). Briefly: SAR analysis of Antagonists of the Kappa Opioid Receptor (KOR) using an Image-Based Assay - Set 4. [Related pubchem assays (depositor defined):AID1777, AID1785]. In kind it is functional.
In assay [20] the target is T7, Kappa-type opioid receptor. Kind of assay: SAR analysis of small molecule antagonists of the kappa opioid receptor via a luminescent beta-arrestin assay - Set 6. [Related pubchem assays (depositor defined):AID1777, AID1778, AID1785, AID1786, AID1966, AID2133, AID2136, AID2285]. In kind it is functional.
Assay [21] concerns the target T7, Kappa-type opioid receptor. Kind of assay: SAR analysis of small molecule antagonists of the kappa opioid receptor via a luminescent beta-arrestin assay - Set 3. [Related pubchem assays (depositor defined):AID1777, AID1778, AID1785, AID1786, AID1966, AID2133, AID2136, AID2285, AID2495]. In kind it is functional.
In another assay the target is Mu-type opioid receptor (Homo sapiens, UniProt P35372). Kind of assay: SAR Analysis of Antagonists of the MOR Receptor using an Image-Based Assay - Set 3. [Related pubchem assays (depositor defined):AID1777, AID1785, AID1786, AID1966, AID2133, AID2136, AID2284, AID2285, AID2420]. In kind it is functional.
Assay [22] concerns the target Delta-type opioid receptor (Homo sapiens, UniProt P41143). Kind of assay: SAR Analysis of Antagonists of the DOR Receptor using an Image-Based Assay - Set 3. [Related pubchem assays (depositor defined):AID1777, AID1785]. In kind it is functional.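 Also: U2OS cells expressing DOR1 and beta-arrestin GFP stimulated with 100 nM SNC80; imaging of GFP-tagged beta-arrestin moving into spots after receptor activation.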
The target in assay [23] is E3 ubiquitin-protein ligase Mdm2/Protein Mdm4 (Homo sapiens, UniProt O15151+Q00987). Briefly: disruption of Mdm2/MdmX protein binding – luminescence detection, dose response (AID 504593). In kind it is functional.
E3 ubiquitin-protein ligase Mdm2/Protein Mdm4, sequence (Q00987 whole entry): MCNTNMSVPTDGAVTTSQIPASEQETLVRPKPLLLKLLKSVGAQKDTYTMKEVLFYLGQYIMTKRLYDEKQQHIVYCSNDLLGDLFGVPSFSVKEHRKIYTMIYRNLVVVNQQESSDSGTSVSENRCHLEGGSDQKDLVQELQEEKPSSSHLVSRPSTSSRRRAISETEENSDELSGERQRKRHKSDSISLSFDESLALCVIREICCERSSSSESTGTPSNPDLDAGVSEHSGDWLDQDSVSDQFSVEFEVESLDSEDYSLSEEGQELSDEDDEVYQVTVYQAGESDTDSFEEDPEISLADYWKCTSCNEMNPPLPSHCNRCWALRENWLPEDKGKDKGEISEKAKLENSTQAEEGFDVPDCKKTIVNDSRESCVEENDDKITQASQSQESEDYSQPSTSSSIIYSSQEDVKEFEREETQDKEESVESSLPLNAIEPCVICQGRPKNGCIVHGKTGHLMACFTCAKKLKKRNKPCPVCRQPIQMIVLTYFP
E3 ubiquitin-protein ligase Mdm2/Protein Mdm4, sequence (O15151 whole entry): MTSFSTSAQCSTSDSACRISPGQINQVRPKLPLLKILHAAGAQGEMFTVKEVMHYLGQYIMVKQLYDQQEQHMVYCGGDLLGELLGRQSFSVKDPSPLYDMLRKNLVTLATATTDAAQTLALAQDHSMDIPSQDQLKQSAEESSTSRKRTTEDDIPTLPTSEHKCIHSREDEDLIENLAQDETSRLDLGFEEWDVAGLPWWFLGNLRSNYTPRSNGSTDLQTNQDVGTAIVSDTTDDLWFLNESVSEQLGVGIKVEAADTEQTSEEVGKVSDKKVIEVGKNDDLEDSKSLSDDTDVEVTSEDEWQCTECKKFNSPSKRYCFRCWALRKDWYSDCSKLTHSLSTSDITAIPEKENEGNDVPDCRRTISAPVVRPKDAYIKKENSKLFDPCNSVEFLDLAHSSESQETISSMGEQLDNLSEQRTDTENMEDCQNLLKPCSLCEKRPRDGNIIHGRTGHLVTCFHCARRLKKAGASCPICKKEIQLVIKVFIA
Assay [24] is described as follows: viability of uninfected HEp-2 cells – cell-based, HTS, cytotoxicity control for RSV inhibitor project, dose response (AID 2410). In kind it is functional. The following applies: human respiratory syncytial virus.

Activity calls are given as the source filed them. A value given as a limit tells only on which side of the number the result lay.

T7 sequence (P41145 whole entry): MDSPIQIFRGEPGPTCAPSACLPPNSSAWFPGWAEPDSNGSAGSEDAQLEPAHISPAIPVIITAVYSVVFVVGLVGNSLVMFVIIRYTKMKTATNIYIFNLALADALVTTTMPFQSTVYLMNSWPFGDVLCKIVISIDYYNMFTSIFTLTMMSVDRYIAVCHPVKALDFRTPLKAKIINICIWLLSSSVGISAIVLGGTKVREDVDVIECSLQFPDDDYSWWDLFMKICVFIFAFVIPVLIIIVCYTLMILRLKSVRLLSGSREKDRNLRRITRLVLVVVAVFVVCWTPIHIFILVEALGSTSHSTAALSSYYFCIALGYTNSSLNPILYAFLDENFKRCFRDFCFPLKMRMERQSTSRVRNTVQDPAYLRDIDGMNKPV
T1 sequence (P24822 whole entry): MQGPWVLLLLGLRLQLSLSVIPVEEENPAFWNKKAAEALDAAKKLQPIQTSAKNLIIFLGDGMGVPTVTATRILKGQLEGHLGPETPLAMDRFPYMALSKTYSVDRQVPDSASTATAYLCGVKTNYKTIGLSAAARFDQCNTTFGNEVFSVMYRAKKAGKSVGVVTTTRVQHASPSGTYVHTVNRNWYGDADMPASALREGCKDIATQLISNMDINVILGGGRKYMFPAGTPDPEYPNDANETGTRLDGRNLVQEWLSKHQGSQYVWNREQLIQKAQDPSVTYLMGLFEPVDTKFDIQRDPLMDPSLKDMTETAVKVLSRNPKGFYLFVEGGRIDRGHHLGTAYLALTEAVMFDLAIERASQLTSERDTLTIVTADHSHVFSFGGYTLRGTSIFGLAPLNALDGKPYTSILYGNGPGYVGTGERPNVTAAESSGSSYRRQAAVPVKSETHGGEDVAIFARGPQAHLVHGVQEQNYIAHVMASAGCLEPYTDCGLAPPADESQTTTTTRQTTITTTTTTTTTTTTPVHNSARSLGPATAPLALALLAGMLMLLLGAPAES
T5 sequence (P11940 whole entry): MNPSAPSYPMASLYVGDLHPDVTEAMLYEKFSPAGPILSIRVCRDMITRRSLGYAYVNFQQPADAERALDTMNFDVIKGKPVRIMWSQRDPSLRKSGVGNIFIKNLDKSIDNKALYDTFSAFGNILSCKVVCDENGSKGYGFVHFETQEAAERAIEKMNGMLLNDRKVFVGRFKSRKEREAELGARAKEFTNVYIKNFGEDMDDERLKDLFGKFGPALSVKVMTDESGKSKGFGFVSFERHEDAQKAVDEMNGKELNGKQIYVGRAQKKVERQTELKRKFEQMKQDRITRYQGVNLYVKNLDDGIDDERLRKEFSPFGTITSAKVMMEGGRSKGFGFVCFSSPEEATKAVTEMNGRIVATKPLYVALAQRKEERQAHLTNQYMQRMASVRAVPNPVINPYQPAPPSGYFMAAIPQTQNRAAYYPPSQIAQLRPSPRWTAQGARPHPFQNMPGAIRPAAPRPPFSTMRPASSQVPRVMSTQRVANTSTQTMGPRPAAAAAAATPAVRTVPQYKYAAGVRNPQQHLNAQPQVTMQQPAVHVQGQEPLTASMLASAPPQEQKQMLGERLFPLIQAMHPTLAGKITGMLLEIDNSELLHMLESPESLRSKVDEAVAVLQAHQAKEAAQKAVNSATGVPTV
NACHT, LRR and PYD domains-containing protein 3, sequence (Q96P20 whole entry, the tested form may be a part): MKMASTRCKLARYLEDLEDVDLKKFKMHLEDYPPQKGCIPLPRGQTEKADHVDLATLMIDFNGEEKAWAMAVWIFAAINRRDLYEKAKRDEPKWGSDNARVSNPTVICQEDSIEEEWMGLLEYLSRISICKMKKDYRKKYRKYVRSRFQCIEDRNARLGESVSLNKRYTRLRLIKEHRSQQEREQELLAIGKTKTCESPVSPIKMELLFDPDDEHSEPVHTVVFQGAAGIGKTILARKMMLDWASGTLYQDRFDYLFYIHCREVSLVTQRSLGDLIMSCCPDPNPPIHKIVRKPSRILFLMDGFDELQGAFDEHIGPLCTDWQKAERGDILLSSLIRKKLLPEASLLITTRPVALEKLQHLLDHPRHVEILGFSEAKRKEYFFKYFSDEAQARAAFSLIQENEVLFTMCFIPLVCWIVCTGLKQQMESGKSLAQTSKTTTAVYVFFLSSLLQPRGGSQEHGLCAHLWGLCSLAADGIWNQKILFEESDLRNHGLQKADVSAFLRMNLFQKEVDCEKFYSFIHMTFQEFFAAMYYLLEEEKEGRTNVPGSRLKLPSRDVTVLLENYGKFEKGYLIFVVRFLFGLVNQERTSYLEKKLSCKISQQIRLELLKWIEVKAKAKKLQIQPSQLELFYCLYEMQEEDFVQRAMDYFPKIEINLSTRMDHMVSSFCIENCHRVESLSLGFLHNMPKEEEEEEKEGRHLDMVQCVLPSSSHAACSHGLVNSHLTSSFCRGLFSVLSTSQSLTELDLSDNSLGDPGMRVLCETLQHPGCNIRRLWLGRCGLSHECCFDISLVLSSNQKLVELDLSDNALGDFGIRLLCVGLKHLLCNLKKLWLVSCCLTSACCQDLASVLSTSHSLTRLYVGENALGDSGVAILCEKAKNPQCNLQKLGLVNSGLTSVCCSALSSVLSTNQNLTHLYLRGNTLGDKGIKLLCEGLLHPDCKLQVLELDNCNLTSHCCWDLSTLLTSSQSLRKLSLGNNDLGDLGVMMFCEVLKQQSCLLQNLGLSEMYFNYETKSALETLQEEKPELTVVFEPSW
Delta-type opioid receptor, sequence (P41143 whole entry): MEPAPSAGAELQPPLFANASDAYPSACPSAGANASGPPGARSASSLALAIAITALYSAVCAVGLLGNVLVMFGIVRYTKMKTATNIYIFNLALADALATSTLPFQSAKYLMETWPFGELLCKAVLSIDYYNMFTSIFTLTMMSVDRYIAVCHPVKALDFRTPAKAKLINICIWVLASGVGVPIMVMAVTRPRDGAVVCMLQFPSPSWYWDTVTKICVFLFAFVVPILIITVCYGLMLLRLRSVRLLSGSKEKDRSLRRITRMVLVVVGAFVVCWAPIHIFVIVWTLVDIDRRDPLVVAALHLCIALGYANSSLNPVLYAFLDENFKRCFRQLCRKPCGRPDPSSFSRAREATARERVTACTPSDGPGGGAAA

With `COc1ccc(Oc2cnn(-c3ccc(C)cc3)c(=O)c2Cl)cc1`, the results for the IC50 in assay [1] and in [2] were 12.6 µM (inactive) and 7 µM (active), respectively.

For the compound `COc1ccc(CCN(C)C(=O)C2CCCN(Cc3ccccc3)C2)cc1OC` (stereo unspecified), the figures for the AC50 (in [3]; in the assay with Trypanosoma cruzi) were 47.4 µM (active) and 1.4 µM (active), respectively.

As to `CC(Oc1ccccc1)C(=O)Nc1nnc(-c2ccc3c(c2)OCO3)o1` (stereo unspecified), in assay [4], the EC50 (as a rule, the concentration needed to bring the measured effect to its halfway point) is 10 µM (active).

Take `Cc1ccc(OCCOc2ccc(Oc3ccccc3)cc2)c([N+](=O)[O-])n1`: in assay [5], the EC50 was > 50 µM (inactive).

As for `CC(C)Oc1ccc(C(=O)Nc2nnc[nH]2)cc1`, the EC50 is > 100 µM (inactive) in [6], 22.9 µM (active) in assay [7], 11.4 µM (active) in assay [8] and 33 µM (active) in assay [9].

Take `COc1cccc(CNC(=O)CSc2ccc(-c3ccco3)nn2)c1`: the IC50 (in general, the midpoint of a concentration-inhibition curve) in [10] is > 100 µM (inactive); in [11], > 100 µM (inactive); in assay [12] it was > 100 µM (inactive); in [13], 34.9 µM (active).

Consider `FC(F)Oc1ccc(C2=Nn3c(nnc3-c3ccccc3Cl)SC2)cc1OCC1CC1`, for which the EC50 at Integrin alpha-4 is 3.89 µM (active).

Consider `Cc1ccc(Nc2nc(-c3c(C)nc4ccccn34)cs2)cc1`, for which the IC50 in the assay with J774.A1 is < 0.05 µM (inactive).

Turning to `O=C(COC(=O)C1=COCCO1)Nc1c(F)cccc1F`, the AC50 in [14], in assay [15] and in assay [16] was > 350 µM (inactive) in each case.

With `O=C(NNC(=S)NC(=O)c1ccccc1)c1cccnc1`, the EC50 is 16.4 µM (active) in [7], 12.1 µM (active) in assay [8] and 16.4 µM (active) in [9]. Besides, the IC50 in assay [17] was 74.2 µM (active).

With `Cc1csc2nc(O)c(C(=O)NCCC3=CCCCC3)c(=O)n12`, the IC50 in assay [18] was 4.07 µM (active).

In the case of `COc1ccc(N2CCN(CCCNC(=O)Cn3c(=O)c4cccn4c4c(C)ccnc43)CC2)c(OC)c1`, the IC50 in assay [19] was 0.00406 µM (active); in assay [20] it was 0.225 µM (active); in [21], 0.154 µM (active); on Mu-type opioid receptor, 30.9 µM (inactive); in assay [22] it was > 32 µM (inactive).

On to `Cc1cccn2c(=O)c3cc(C(=O)NCCc4ccccc4)c(=N)n(Cc4ccco4)c3nc12`, for which the IC50 in [23] is 3.68 µM (active). In addition, the CC50 (as a rule, the concentration that lowers cell viability or growth by half) in assay [24] is 15.5 µM (active).

(Values after ChEMBL document CHEMBL1201862, “PubChem BioAssay data set” (2004).)
